Data from patent publication US20090220490A1, “Compositions and Assays for Inhibiting HCV Infection” (priority 2006, published 2009).
“Also recorded” adds a separate entry of the source. Where a SMILES comes first, the peptide text is derived from it. The star is where a group is joined. FITC = O=C1OC2(c3ccc(O)cc3Oc3cc(O)ccc32)c2ccc(NC(=S)*)cc21

Experiments:
Format in all cases: cell-based
[1] = system: endogenous AP-50 phosphorylation on Thr156; experiment: confocal microscopy of AP-50 phosphoT156 in HCV-infected human hepatocyte cultures; conditions: HCV genotype 1-infected human hepatocyte cultures, 72 hr, epitope specific antibodies (FIG. 13D)
Experimental: (§1) Fluorescent labels were observed using a triple-channel fluorescence microscope or a confocal microscope. Fluorochromes utilized included TOPRO-3 (blue), Alexa 488 (green) and Alexa 594 (red) (Molecular Probes). The percentage of HCV infected hepatocytes was determined by confocal microscopy using HCV E2 and core specific antibodies (Buck, et al., Mol. Cell. 8, 807 (2001); Rudel et al., Science 276, 1571 (1997). AP-50 and AP-50-phosphoT^157 were detected with specific antibodies (Zhang et al., Traffic 6, 1103 (2005); Smythe, Nature 431, 641 (2004)). At least 100 cells were analyzed per experimental point (Buck et al. EMBO J 20, 6712 (2001)). The nuclear morphology were analyzed by staining cells with TOPRO-3 ([…]). Two observers analyzed each immunofluorescent study.
(§2) Primary hepatocytes were fixed with 50/50 acetone/methanol at −20° C. for 20 minutes and allowed to air dry at room temperature. Blocking of non-specific epitopes was done with PBS+3% BSA for 30 minutes at room temperature. Primary antibodies were used at 1:100 dilutions in PBS+3% BSA, for 1 hour at room temperature washes were done with PBS. […] At least 100 cells were analyzed per experimental point. We analyzed the nuclear morphology by staining cells with TO-PRO-3 (Molecular Probes). […]

[2] = system: human hepatocytes; experiment: cell toxicity by release of lactic dehydrogenase (LDH) into the medium
Experimental: Toxicity of AP-50 peptides to human hepatocyte cultures was determined by measuring lactic dehydrogenase (Sigma) in the medium.

[3] = system: HCV-infected human hepatocytes; experiment: confocal microscopy of FITC-labelled peptide: cell entry and association with HCV E2
Experimental: as §1, §2

[4] = system: HCV genotype 1; experiment: HCV replication (HCV RNA expression) in serum-derived HCV-infected human hepatocyte cultures
Text: (§3) Sera from 25 HCV-infected patients and 3 control subjects were obtained at the VA San Diego Healthcare System Clinical Laboratory. The subject population included individuals with chronic HCV infection, viral load>200,000 IU/ml and genotypes 1 (N: 15), 2 (N: 3), 3 (N: 4), or 4 (N: 3), but negative for Hepatitis A and B, CMV and HIV. Control sera were obtained from subjects negative for Hepatitis A, B and C, CMV and HIV. In different experiments, the inoculums fluctuated between 3,728 and 68,000 HCV viral particles.
(§4) The hepatocytes were cultured for serum-derived HCV infection under the following conditions: 1) the matrix was rat-tail collagen (BD); 2) the collagen matrix was prepared within 24 hr of hepatocyte plating, at a concentration of 50 μg/ml or greater; 3) the culture plates were coated with polylysine; 4) the rinsing of the matrix was minimal; 5) the suspended hepatocytes were allowed to attach in 20% fetal calf serum for not more than 18 hr; 6) the hepatocyte-specific media was given for at least 24 hr prior to the HCV infection; 7) the hepatocytes were >85% confluent until the time of infection; 8) hepatocyte cultures with >5% apoptosis by annexin-V assays and/or increases>3-fold in ALT were discarded; and 9) hepatocyte media was added every 48 hr.
(§5) Total RNA was isolated from HCV infected primary human hepatocytes using the Ultraspec TM-II RNA kit from Biotecx Inc. (Texas) following the manufacturers protocol. The cDNA synthesis was performed using Stratascript RT MMuLV RNAse H free and Stratascript RT buffer (Stratagene), per manufacturers protocol, using:
(§6) PCR was performed on the cDNA using the cDNA reaction mixture with Qiagen's HotStar High Fidelity polymerase. Amplicons were run on 2% TBE agarose gels and imaged on a KODAK Imaging station.

[5] = system: HCV genotype 4; experiment: as above; conditions: peptide 90 μM (text: picomolar), treated 4 hr after the HCV infection (FIG. 13F)
Text: as §3, §4, §5, §6

[6] = system: HCV genotype 3; experiment: as above; conditions: peptide 90 μM (text: picomolar), treated 4 hr after the HCV infection (FIG. 13F)
Text: as §3, §4, §5, §6

CC(C)[C@H](NC(=O)[C@H](CCC(N)=O)NC(=O)[C@H](CCCNC(=N)N)NC(=O)[C@H](CCCNC(=N)N)NC(=O)[C@H](CCCNC(=N)N)NC(=O)[C@H](CCC(N)=O)NC(=O)[C@H](CCCNC(=N)N)NC(=O)[C@H](CCCNC(=N)N)NC(=O)[C@H](CCCCN)NC(=O)[C@H](CCCCN)NC(=O)[C@H](CCCNC(=N)N)NC(=O)CNC(=O)[C@H](Cc1ccc(O)cc1)NC(=O)CNC(=O)CNC(=O)CNC(=O)CNC(=S)Nc1ccc2c(c1)C(=O)OC21c2ccc(O)cc2Oc2cc(O)ccc21)C(=O)N[C@@H](C)C(=O)NCC(=O)N[C@@H](CCC(N)=O)C(=O)O [AP-50 peptide] ({FITC}-GGGGYGRKKRRQRRRQVAGQ-OH; N-terminus and C-terminus assumed)
phosphorylation of endogenous AP-50 on Thr156 [1]: inhibited the phosphorylation; also recorded: blocked phosphorylation
LDH values / viability of HCV-infected hepatocytes treated with peptide ([2]; human hepatocytes infected with HCV genotypes 1, 3 or 4, 72 hr, relative to control (FIG. 14)): improving the viability; also recorded: normalized
cellular toxicity (LDH release into the medium) ([2]; human hepatocytes treated with peptide for 72 hr (FIG. 14)): not toxic
association with HCV E2 in cells (confocal microscopy, merge) ([3]; HCV-infected human hepatocytes, 72 hr (FIG. 13B)): associated with HCV E2
cell permeability (intracellular FITC fluorescence) ([3]; human hepatocytes, 72 hr, HCV genotype 1 (FIG. 13B)): cell permeable; also recorded: intracellular
HCV replication, detected by expression of HCV RNA ([4]; peptide 90 pM, 72 hr, given at time zero of the infection (FIG. 13E)): blocked HCV replication; also recorded: inhibited HCV replication
HCV replication, detected by expression of HCV RNA at 72 hr ([4]; peptide 90 μM (text: picomolar), treated 4 hr after the HCV infection (FIG. 13F)): inhibited HCV replication
HCV replication, detected by expression of HCV RNA at 72 hr [5]: inhibited HCV replication
HCV replication, detected by expression of HCV RNA at 72 hr [6]: inhibited HCV replication
